Reference: ChEMBL document CHEMBL5303573, “Mapping human microbiome drug metabolism by gut bacteria and their genes” (Nature, 2019)
Non-standard residues stand in square brackets, D forms with d. Residues, ends and D or L forms follow the SMILES beside them. pGlu = O=C1CC[C@@H](C(=O)O)N1; Thz = O=C(O)[C@@H]1CSCN1

What was measured:
[1] = The drug is tested on Bifidobacterium breve strain: DSM20213 for biotransformation. The drug concentrations were measured before and after a 12-h incubation by liquid-chromatography-coupled mass spectrometry (LC–MS); conditions: 2 µM
[2] = The drug is tested on Bifidobacterium ruminantium strain: fecal isolate for biotransformation. The drug concentrations were measured before and after a 12-h incubation by liquid-chromatography-coupled mass spectrometry (LC–MS); conditions: 2 µM
[3] = The drug is tested on Bacteroides caccae strain: ATCC43185 for biotransformation. The drug concentrations were measured before and after a 12-h incubation by liquid-chromatography-coupled mass spectrometry (LC–MS); conditions: 2 µM
[4] = The drug is tested on Bacteroides finegoldii strain: DSM17565 for biotransformation. The drug concentrations were measured before and after a 12-h incubation by liquid-chromatography-coupled mass spectrometry (LC–MS); conditions: 2 µM
[5] = The drug is tested on Anaerococcus hydrogenalis strain: DSM7454 for biotransformation. The drug concentrations were measured before and after a 12-h incubation by liquid-chromatography-coupled mass spectrometry (LC–MS); conditions: 2 µM
[6] = The drug is tested on Anaerotruncus colihominis strain: DSM17241 for biotransformation. The drug concentrations were measured before and after a 12-h incubation by liquid-chromatography-coupled mass spectrometry (LC–MS); conditions: 2 µM
[7] = The drug is tested on Clostridium scindens strain: ATCC35704 for biotransformation. The drug concentrations were measured before and after a 12-h incubation by liquid-chromatography-coupled mass spectrometry (LC–MS); conditions: 2 µM
[8] = The drug is tested on Enterococcus faecalis strain: V583 for biotransformation. The drug concentrations were measured before and after a 12-h incubation by liquid-chromatography-coupled mass spectrometry (LC–MS); conditions: 2 µM
[9] = The drug is tested on Eubacterium hallii strain: DSM3353 for biotransformation. The drug concentrations were measured before and after a 12-h incubation by liquid-chromatography-coupled mass spectrometry (LC–MS); conditions: anaerobutyricum hallii, 2 µM
[10] = The drug is tested on Ruminococcus lactaris strain: ATCC29176 for biotransformation. The drug concentrations were measured before and after a 12-h incubation by liquid-chromatography-coupled mass spectrometry (LC–MS); conditions: 2 µM
[11] = The drug is tested on Edwardsiella tarda strain: ATCC23685 for biotransformation. The drug concentrations were measured before and after a 12-h incubation by liquid-chromatography-coupled mass spectrometry (LC–MS); conditions: 2 µM
[12] = bacteroides fragilis, 12 h, 2 µM
Description: The drug is tested on Bacteroides fragilis strain: NCTC 9343 for biotransformation. The drug concentrations were measured before and after a 12-h incubation by liquid-chromatography-coupled mass spectrometry (LC–MS)

[13] = bacteroides thetaiotaomicron, 12 h, 2 µM
Description: The drug is tested on Bacteroides thetaiotaomicron strain: 7330 for biotransformation. The drug concentrations were measured before and after a 12-h incubation by liquid-chromatography-coupled mass spectrometry (LC–MS)

[14] = parabacteroides distasonis, 12 h, 2 µM
Description: The drug is tested on Parabacteroides distasonis strain: ATCC8503 for biotransformation. The drug concentrations were measured before and after a 12-h incubation by liquid-chromatography-coupled mass spectrometry (LC–MS)

[15] = segatella copri, 12 h, 2 µM
Description: The drug is tested on Prevotella copri strain: DSM18205 for biotransformation. The drug concentrations were measured before and after a 12-h incubation by liquid-chromatography-coupled mass spectrometry (LC–MS)

[16] = limosilactobacillus reuteri cf48-3a, 12 h, 2 µM
Description: The drug is tested on Lactobacillus reuteri CF48-3A strain: BEI HM-102 for biotransformation. The drug concentrations were measured before and after a 12-h incubation by liquid-chromatography-coupled mass spectrometry (LC–MS)

[17] = roseburia intestinalis, 12 h, 2 µM
Description: The drug is tested on Roseburia intestinalis strain: L1-82 for biotransformation. The drug concentrations were measured before and after a 12-h incubation by liquid-chromatography-coupled mass spectrometry (LC–MS)

[18] = The drug is tested on Coprococcus comes strain: ATCC27758 for biotransformation. The drug concentrations were measured before and after a 12-h incubation by liquid-chromatography-coupled mass spectrometry (LC–MS); assay type: ADME; parameters: dose 2 uM, timepoint 0 vs 12 hours; conditions: 2 µM
[19] = bifidobacterium adolescentis, 12 h, 2 µM
Description: The drug is tested on Bifidobacterium adolescentis strain: ATCC 15703 for biotransformation. The drug concentrations were measured before and after a 12-h incubation by liquid-chromatography-coupled mass spectrometry (LC–MS)

[20] = The drug is tested on Blautia luti strain: DSM14534 for biotransformation. The drug concentrations were measured before and after a 12-h incubation by liquid-chromatography-coupled mass spectrometry (LC–MS); assay type: ADME; parameters: dose 2 uM, timepoint 0 vs 12 hours; conditions: 2 µM

SMILES | Bacterial Biotransformation [1] | Bacterial Biotransformation [2] | Bacterial Biotransformation [3] | Bacterial Biotransformation [4] | Bacterial Biotransformation [5] | Bacterial Biotransformation [6] | Bacterial Biotransformation [7] | Bacterial Biotransformation [8] | Bacterial Biotransformation [9] | Bacterial Biotransformation [10] | Bacterial Biotransformation [11] | Bacterial Biotransformation [12] | Bacterial Biotransformation [13] | Bacterial Biotransformation [14] | Bacterial Biotransformation [15] | Bacterial Biotransformation [16] | Bacterial Biotransformation [17] | Bacterial Biotransformation [18] | Bacterial Biotransformation [19] | Bacterial Biotransformation [20]
CC(C)c1nc(CN(C)C(=O)N[C@H](C(=O)N[C@@H](Cc2ccccc2)C[C@H](O)[C@H](Cc2ccccc2)NC(=O)OCc2cncs2)C(C)C)cs1 [RITONAVIR] | Compound NOT metabolized | Compound NOT metabolized | Compound NOT metabolized | Compound NOT metabolized | Compound NOT metabolized | Compound NOT metabolized | Compound NOT metabolized | Compound NOT metabolized | Compound NOT metabolized | Compound NOT metabolized | Compound NOT metabolized | Compound metabolized | Compound NOT metabolized | Compound NOT metabolized | Compound NOT metabolized | Compound NOT metabolized | Compound NOT metabolized |  |  | 
CCCc1nc2c(C)cc(-c3nc4ccccc4n3C)cc2n1Cc1ccc(-c2ccccc2C(=O)O)cc1 | Compound NOT metabolized | Compound NOT metabolized |  | Compound NOT metabolized | Compound NOT metabolized |  | Compound NOT metabolized |  | Compound NOT metabolized | Compound NOT metabolized | Compound NOT metabolized | Compound metabolized | Compound metabolized | Compound metabolized |  |  | Compound NOT metabolized | Compound NOT metabolized | Compound NOT metabolized | 
CN1CC(=O)N2[C@H](c3ccc4c(c3)OCO4)c3[nH]c4ccccc4c3C[C@@H]2C1=O | Compound NOT metabolized | Compound NOT metabolized | Compound NOT metabolized | Compound NOT metabolized | Compound NOT metabolized | Compound NOT metabolized | Compound NOT metabolized | Compound NOT metabolized | Compound NOT metabolized | Compound NOT metabolized | Compound NOT metabolized | Compound NOT metabolized | Compound metabolized | Compound NOT metabolized |  | Compound NOT metabolized | Compound NOT metabolized | Compound NOT metabolized | Compound NOT metabolized | Compound NOT metabolized
COc1cc2nc(N3CCN(C(=O)c4ccco4)CC3)nc(N)c2cc1OC [PRAZOSIN] | Compound NOT metabolized | Compound NOT metabolized | Compound NOT metabolized | Compound NOT metabolized | Compound NOT metabolized | Compound NOT metabolized |  | Compound NOT metabolized | Compound NOT metabolized | Compound NOT metabolized | Compound NOT metabolized |  | Compound NOT metabolized | Compound NOT metabolized | Compound NOT metabolized | Compound NOT metabolized | Compound NOT metabolized | Compound NOT metabolized | Compound NOT metabolized | Compound NOT metabolized
CC(CN(C)C)CN1c2ccccc2CCc2ccccc21.O=C(O)/C=C\C(=O)O (stereo unspecified) [TRIMIPRAMINE MALEATE] | Compound NOT metabolized | Compound NOT metabolized | Compound NOT metabolized | Compound NOT metabolized | Compound NOT metabolized | Compound NOT metabolized |  |  | Compound NOT metabolized | Compound NOT metabolized | Compound NOT metabolized |  | Compound NOT metabolized | Compound NOT metabolized |  | Compound NOT metabolized | Compound NOT metabolized | Compound NOT metabolized | Compound NOT metabolized | Compound NOT metabolized
CC(C)c1nc(N(C)S(C)(=O)=O)nc(-c2ccc(F)cc2)c1/C=C/[C@@H](O)C[C@@H](O)CC(=O)[O-].CC(C)c1nc(N(C)S(C)(=O)=O)nc(-c2ccc(F)cc2)c1/C=C/[C@@H](O)C[C@@H](O)CC(=O)[O-].[Ca+2] [ROSUVASTATIN CALCIUM] | Compound NOT metabolized | Compound NOT metabolized |  | Compound NOT metabolized | Compound NOT metabolized | Compound NOT metabolized | Compound NOT metabolized | Compound NOT metabolized | Compound NOT metabolized | Compound NOT metabolized | Compound NOT metabolized | Compound NOT metabolized | Compound NOT metabolized | Compound NOT metabolized |  | Compound NOT metabolized | Compound NOT metabolized | Compound NOT metabolized | Compound NOT metabolized | Compound NOT metabolized
O=C1CC[C@@H](C(=O)N2CSC[C@H]2C(=O)O)N1 [PIDOTIMOD] ([pGlu]-[Thz]-OH) | Compound NOT metabolized | Compound NOT metabolized |  |  | Compound NOT metabolized | Compound NOT metabolized | Compound NOT metabolized | Compound NOT metabolized | Compound NOT metabolized | Compound NOT metabolized | Compound NOT metabolized | Compound metabolized | Compound metabolized | Compound metabolized | Compound metabolized |  | Compound NOT metabolized | Compound NOT metabolized | Compound NOT metabolized | Compound NOT metabolized
Nc1nc2ccc(OC(F)(F)F)cc2s1 [RILUZOLE] | Compound NOT metabolized | Compound metabolized | Compound NOT metabolized | Compound NOT metabolized | Compound NOT metabolized | Compound NOT metabolized | Compound NOT metabolized | Compound NOT metabolized | Compound NOT metabolized | Compound NOT metabolized | Compound NOT metabolized | Compound NOT metabolized | Compound metabolized | Compound metabolized | Compound NOT metabolized | Compound NOT metabolized | Compound NOT metabolized |  | Compound NOT metabolized | 
COc1ccc(C(CN(C)C)C2(O)CCCCC2)cc1 (stereo unspecified) [VENLAFAXINE] | Compound NOT metabolized | Compound NOT metabolized | Compound NOT metabolized | Compound NOT metabolized | Compound NOT metabolized | Compound NOT metabolized | Compound NOT metabolized | Compound NOT metabolized | Compound NOT metabolized | Compound NOT metabolized | Compound NOT metabolized | Compound NOT metabolized | Compound NOT metabolized | Compound NOT metabolized | Compound NOT metabolized | Compound NOT metabolized | Compound NOT metabolized |  | Compound NOT metabolized | Compound NOT metabolized
